# Experimental data as given in PubChem BioAssay AID1996.
# Settings: buffer; pH 7.4; 200.0 µM
row,Compound,solubility kinetic [µg/mL]
1,Cc1ccc(NC(=O)CC2CCCC2)c(Br)c1,2.4
2,CC(=O)c1c(C)[nH]c(C(=O)Nc2cccc(C)n2)c1C,21.4
3,O=C(COC(=O)c1ccc2ccccc2c1O)NCC(F)(F)F,2.5
4,O=[N+]([O-])c1ccccc1S(=O)(=O)Nc1ccc(S(=O)(=O)N2CCCC2)cc1,> 61.7
5,COc1ccccc1CNC(=O)COC(=O)C1CC1,> 39.5
6,CC(c1ccccc1)n1cnc2ccccc2c1=O (stereo not drawn),> 37.5
7,CCOc1ccccc1NC(=O)c1cc2ccccc2oc1=O,< 0.7
8,CN(C)CCCNC(=O)N1c2ccccc2C=Cc2ccccc21.Cl,> 53.7
9,O=C(NCCc1ccccc1)c1ccc(-c2ccc(F)cc2)o1,7.1
10,Cc1ccc(NC(=O)CC(C)c2ccccc2)cc1S(=O)(=O)N1CCOCC1 (stereo not drawn),47.5
11,CC(C)[C@H](NC(=O)c1ccccc1F)C(=O)Nc1ccc(F)c(F)c1,4.9
12,O=C(COc1ccccc1Cl)NCCCNC(=O)c1ccco1,> 50.5
13,Cc1[nH]n(-c2ccccc2)c(=O)c1C=NCC1CCCO1 (stereo not drawn),> 42.8
14,Cc1c(-c2ccccc2)[n+](=O)c2c(n1[O-])CCCC2,> 38.4
15,Cc1ccccc1NC(=O)CCN1CCCC1.Cl,> 40.3
16,Cl.O=C(OCC1CCNCC1)c1ccc2c(c1)OCO2,> 45
17,CCCNC(=S)Nc1cc2oc3ccccc3c2cc1OC,0.4
18,O=Cc1cc([N+](=O)[O-])ccc1N1CCN(Cc2ccc3c(c2)OCO3)CC1,12.2
19,C=CCSc1nc2c(c(-c3ccsc3)c1C#N)CN(C)CC2,23
20,CC(=O)NCc1ccc(S(=O)(=O)N2CCCN(C)CC2)cc1.Cl,> 54.3
21,COc1cccc(NC(=O)Nc2ccc3c(c2)OCO3)c1,3.7
22,Cc1cc2sc(NC(=O)c3ccco3)nc2cc1Cl,0.6
23,O=C(NNC(=O)c1ccco1)c1csc(N2CCOCC2)n1,> 48.4
24,O=C(CSC1=NCCN1)NC(c1ccccc1)c1ccccc1,44

row,Compound,solubility kinetic [µg/mL]
1,COc1ccc(/C=C/C(=O)OCC(=O)N2CCCCCC2)cc1OC,37.7
2,CC(=O)Oc1ccc(C(=O)N2c3ccccc3NC(=O)C2C)cc1 (stereo not drawn),> 48.7
3,CSc1ccc(C2NC(=O)c3ccccc3N2)cc1 (stereo not drawn),2.6
4,O=C(/C=C/c1cccc(Br)c1)N1CCN(c2ccccn2)CC1,4.6
5,OC(c1ccccc1)(c1ccc(Cl)cc1)C1CN2CCC1CC2 (stereo not drawn),> 49.2
6,Cc1ccc(OCC(=O)N2CCN(C(=O)c3cccc(F)c3)CC2)cc1,> 53.5
7,CN(Cc1ccccc1F)C(=O)c1ccccc1Sc1ccccc1C#N,17
8,O=C(CNC(=O)c1ccc(OC(F)F)cc1)NCC1CCCO1 (stereo not drawn),> 49.2
9,Cc1nc2ccccc2c2oc(C(=O)N3CCCC(C)C3)cc12 (stereo not drawn),44.6
10,COCCNC(=S)N1CCN(c2nc3ccccc3s2)CC1,35.3
11,CN(Cc1ccccc1F)C(=O)CCCNC(=O)c1ccc(Cl)cc1,32.4
12,O=C(CCNS(=O)(=O)c1cccc(C(F)(F)F)c1)NCc1ccco1,> 56.5
13,CSc1ccc(S(=O)(=O)N2CCC(C(=O)NC3CC3)CC2)cc1,36
14,Cc1ccc(NS(=O)(=O)c2ccc3c(c2)N(C)CCO3)cc1,36.1
15,O=C(O)c1ccc(-c2nnc(-c3ccccc3)o2)cc1,> 39.9
16,Cc1[nH]c2ccccc2c1C(=O)C(=O)N1CC2CC(C1)c1cccc(=O)n1C2 (stereo not drawn),> 56.3
17,O=C(COC(=O)c1ccc[n+]([O-])c1)Nc1ccc([N+](=O)[O-])cc1C(F)(F)F,> 57.8
18,O=[N+]([O-])c1ccc(Oc2cccc(C(F)(F)F)c2)nc1,3.5
19,Cc1oc(S(=O)(=O)N2CCCC2)cc1C(=O)Nc1ccccc1,4.3
20,Cn1c(=O)c2c(nc(NN=C3CCCC3)n2C)n(C)c1=O,> 43.5
21,CCOC(=O)CCNC(=O)N1CCCC(CNS(=O)(=O)c2cccs2)C1 (stereo not drawn),> 60.5
22,Cc1cc2c(cc1S(=O)(=O)N(C)c1ccccc1)NC(=O)CO2,3.3
23,O=C(CC1CCCC1)Nc1cccc(Br)c1,18.1
24,COc1cc(-c2cc(C(=O)OCC(=O)NC3CC3)c3ccccc3n2)cc(OC)c1OC,3.7

row,Compound,solubility kinetic [µg/mL]
1,COc1ccc(OC)c(NC(=O)Nc2cnccn2)c1,3.3
2,CC(OC(=O)c1ccco1)C(=O)NCc1ccc2c(c1)OCO2 (stereo not drawn),> 47.6
3,Cc1ccc(C(=O)OCC(=O)NCc2ccco2)cc1C,12.8
4,COc1ccc(C(=O)Nc2cccc(S(=O)(=O)NC3=NCCC3)c2)cc1OC,40.4
5,CC1(C)CNc2cc(N)ccc2S1,26.3
6,CC(=O)Nc1ccc(S(=O)(=O)Nc2ccc3nc(C)sc3c2)cc1,14.6
7,COc1ccccc1Nc1nc(NCCCN(C)C)nc(N)c1[N+](=O)[O-],> 54.2
8,Cc1ccc(CNC(=O)C2CCCN(c3nc(C)cc(C)n3)C2)cc1 (stereo not drawn),0.6
9,O=C(Nc1ccc(C(=O)O)cc1)Nc1cccc2ccccc12,> 45.9
10,COc1cccc(NC(=O)CN(C)C(C)C(=O)N2CCCCC2)c1.O=C(O)C(=O)O (stereo not drawn),> 63.5
11,CCSCc1nc2ccccn2c1Br,34.6
12,Cc1cccc(NC(=O)Nc2cccnc2)c1C,> 36.2
13,COc1ccc(NC(=O)COc2ccccc2Cc2ccccc2)cn1,12.2
14,CCC(C)[C@H](NC(=O)N1CCCCCC1)C(=O)OC (stereo partly drawn),1.2
15,CC(C)NC(=O)N1c2ccccc2Sc2ccccc21,33.4
16,Oc1ccc(/C=N/N2CCCCC2)cc1O,> 33
17,COc1ccc(NC(=O)COC(=O)C23CC4CC(CC(NC(C)=O)(C4)C2)C3)cc1S(=O)(=O)N1CCOCC1,> 82.4
18,COc1cc(/C=C/C(=O)OCC(=O)NC2CC2)cc(OC)c1OC,> 50.3
19,Cc1ccc(NC(=O)CN2CCCC2c2cccn2C)cc1C (stereo not drawn),42.9
20,Cl.Nc1nc2cc3ccccc3cc2[nH]c1=O,5.2
21,O=[N+]([O-])c1cc2c(cc1CN1CCN(c3ccccc3F)CC1)OCO2,1.1
22,O=C1NC2(CCCCCC2)C(=O)N1Cc1ccccc1,> 40.9
23,CC(C)N(C1=CC(=O)OC12CCCCC2)C(C)C,> 37.7
24,CC1CCCC(NCC(=O)Nc2ccc(C(N)=O)cc2)C1C (stereo not drawn),> 45.5

row,Compound,solubility kinetic [µg/mL]
1,CN1CCN(C(=O)c2ccccc2NC(=O)c2ccccc2)CC1,> 48.5
2,O=C(CCc1ccccc1)N/N=C/c1cccc(O)c1,> 40.2
3,CNC(=S)NCCc1c[nH]c2ccc(OC)cc12,> 39.5
4,O=C(CSc1nc(O)cc(=O)[nH]1)N1CCOCC1,> 40.7
5,COc1ccc(Cl)cc1NC(=O)NN1CCN(C)CC1,> 44.8
6,O=C(Nc1cccc(S(=O)(=O)Nc2ccc(SC(F)F)cc2)c1)C1CCC1,34.8
7,O=C(Nc1cccnc1)C1=NN(C2CCS(=O)(=O)C2)C(=O)CC1 (stereo not drawn),> 50.5
8,Cc1ccc(NC(=O)CNC(=O)c2ccco2)cc1Cl,7
9,Cc1c(C(=O)O)sc2[nH]c(=O)n(Cc3ccccc3)c(=O)c12,45.7
10,O=C(NCCCn1ccnc1)c1ccc(-c2cccc(C(F)(F)F)c2)o1,> 54.5
11,COc1ccc(C(CNC(=O)c2cccc(S(=O)(=O)N3CCOCC3)c2)N2CCOCC2)cc1 (stereo not drawn),> 73.4
12,CC(C)N(Cc1cnn(C)c1)Cc1nc(Cc2ccccc2Cl)no1,> 54
13,Cn1nc(C(C)(C)C)cc1C(=O)O,> 27.3
14,c1ccc(Nc2cccc3ccccc23)cc1,1.5
15,CCOc1ccc(NS(=O)(=O)c2csc(C(N)=O)c2)cc1,46
16,CCOc1ccc(NC(=O)CN2C(=O)COc3ccccc32)cc1,5.1
17,Cn1c(SCC(=O)NC2CCCCC2)nnc1-c1ccccc1F,> 52.3
18,C=CCc1cccc(CNc2c(C)cc(C)cc2C)c1O,4.7
19,NC(=O)c1ccccc1OCC(=O)N1CCCc2ccccc21,> 46.6
20,CCN(CC)C(=O)CSC(Nc1ccc(F)cc1)=C(C#N)C#N,> 49.9
21,Cc1c(CCOC(=O)c2ccc(Cl)cc2Cl)sc[n+]1CC(=O)c1ccccc1.[Br-],> 77.3
22,O=C(NCCCSc1ccccc1)c1cccnc1,> 40.9
23,O=C1CCC(C(=O)Nc2ccccc2N2CCCC2)=NN1,> 42.9
24,O=C(O)c1ccccc1Nc1ccc([N+](=O)[O-])c2nonc12,29.5

row,Compound,solubility kinetic [µg/mL]
1,Cc1c(C=C2C(=O)NC(=O)NC2=O)c(=O)n(-c2ccccc2)n1C,> 48.9
2,CC1=CC(C)(C)NC(=O)N1c1ccc(C)cc1,> 34.5
3,O=C(NCCN1CCNCC1)c1ccccc1O,> 37.4
4,Cc1cccc(Nc2nc(C)cc(C)n2)c1.Cl,20.1
5,CN(C(=O)COC(=O)/C=C/c1cccs1)C1CCCCC1,17.7
6,COC(=O)/C(=N\OCc1ccc(C#N)cc1)c1c(C)nn(C)c1C,> 49
7,O=C(COC(=O)c1cccs1)NCCCc1ccccc1,20.1
8,Cc1[nH]c2ccccc2c1C(=O)CSc1cccc[n+]1[O-],40.8
9,CN(C)C(CNC(=O)c1cc(S(=O)(=O)N2CCOCC2)ccc1F)c1cccs1 (stereo not drawn),> 66.2
10,COc1ccc(Cl)cc1C(=O)Nc1ccncc1,> 39.4
11,COc1ccc(C(CNC(=O)c2cc(S(=O)(=O)N3CCN(c4ccccc4)CC3)ccc2Cl)N(C)C)cc1 (stereo not drawn),49.4
12,CC(C(=O)N1CCCC1)N1CCN(c2ccccc2O)CC1 (stereo not drawn),> 45.5
13,CC(=O)Nc1ccc(Nc2ccccc2)cc1,> 33.9
14,CN(C)CCOC(=O)NC12CC3CC(CC(C3)C1)C2.Cl,> 45.4
15,O=C(NCCCCNC(=O)c1ccc(F)cc1)c1ccc(F)cc1,3.9
16,CC(NC(N)=O)C(=O)NCC(=O)OCc1ccccc1 (stereo not drawn),> 41.9
17,Cc1cc(C)n2nc(SCC(=O)N3CCC(C(=O)O)CC3)nc2n1,> 52.4
18,CCOc1ccccc1/C=C/c1cc(C(=O)O)c2ccccc2n1,45.8
19,Cn1c(N)c(C(=O)COC(=O)/C=C/c2cccc(Cl)c2)c(=O)n(C)c1=O,3.3
20,CCCC(=O)Nc1cc2c(cc1C(C)=O)OCCO2,> 39.5
21,Clc1ccccc1Cc1noc(CN2CCN3CCCC3C2)n1 (stereo not drawn),> 49.9
22,Cc1cc(C)nc(/N=C(\N)Nc2ccc(S(N)(=O)=O)cc2)n1,44.6
